Test results from PubChem BioAssay (NCI).
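Grown in 96-well plates, cells were treated for 48 hours with each compound at five concentrations. Insufficient inhibition: endpoint recorded as highest concentration tested. TGI: total growth inhibition.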

Assays:
Assay in all cases: inhibition of tumour cell growth, NCI panel, 48 h
[1] = tested on: K-562 leukemia
[2] = tested on: DMS 114 small cell lung
[3] = tested on: HOP-18 NSCLC
[4] = tested on: ACHN renal
[5] = tested on: RXF-631 renal
[6] = tested on: LOX IMVI melanoma
[7] = tested on: NCI-H522 lung
[8] = tested on: SK-OV-3 ovarian
[9] = tested on: SK-MEL-28 melanoma
[10] = tested on: UACC-257 melanoma
[11] = tested on: NCI-H226 lung
[12] = tested on: KM20L2 colon
[13] = tested on: UACC-62 melanoma
[14] = tested on: XF 498 CNS
[15] = tested on: HOP-92 NSCLC
[16] = tested on: COLO 205 colon
[17] = tested on: MALME-3M melanoma
[18] = tested on: MOLT-4 leukemia
[19] = tested on: U251 CNS
[20] = tested on: A498 renal
[21] = tested on: OVCAR-8 ovarian
[22] = tested on: IGROV1 ovarian
[23] = tested on: KM12 colon
[24] = tested on: HT29 colon
[25] = tested on: SK-MEL-5 melanoma
[26] = tested on: LXFL 529 NSCLC
[27] = tested on: CCRF-CEM leukemia
[28] = tested on: M14 melanoma
[29] = tested on: RXF 393 renal
[30] = tested on: A549 NSCLC
[31] = tested on: OVCAR-3 ovarian
[32] = tested on: TK-10 renal
[33] = tested on: 786-0 renal
[34] = tested on: M19-MEL melanoma
[35] = tested on: UO-31 renal
[36] = tested on: SNB-75 CNS
[37] = tested on: SK-MEL-2 melanoma
[38] = tested on: SF-268 CNS
[39] = tested on: EKVX NSCLC
[40] = tested on: SN12C renal
[41] = tested on: OVCAR-4 ovarian
[42] = tested on: SNB-78 CNS
[43] = tested on: DMS 273 small cell lung
[44] = tested on: NCI-H460 lung
[45] = tested on: SNB-19 CNS
[46] = tested on: HCT-116 colon
[47] = tested on: HCT-15 colon
[48] = tested on: RPMI-8226 leukemia
[49] = tested on: NCI-H23 lung
[50] = tested on: SW-620 colon
[51] = tested on: SF-295 CNS
[52] = tested on: SF-539 CNS
[53] = tested on: OVCAR-5 ovarian
[54] = tested on: DLD-1 colon
[55] = tested on: CAKI-1 renal
[56] = tested on: HL-60(TB) leukemia
[57] = tested on: SR leukemia
[58] = tested on: HCC-2998 colon
[59] = tested on: HOP-62 NSCLC

CC1(C)OCC[C@@H]1[Si](C)(C)C
TGI [1]: > 100 µM
TGI [2]: > 100 µM
TGI [3]: > 100 µM
TGI [4]: > 100 µM
TGI [5]: > 100 µM
TGI [6]: > 100 µM
TGI [7]: 61 µM
TGI [8]: > 100 µM
TGI [9]: > 100 µM
TGI [10]: > 100 µM
TGI [11]: > 100 µM
TGI [12]: > 100 µM
TGI [13]: > 100 µM
TGI [14]: > 100 µM
TGI [15]: > 100 µM
TGI [16]: > 100 µM
TGI [17]: > 100 µM
TGI [18]: > 100 µM
TGI [19]: > 100 µM
TGI [20]: > 100 µM
TGI [21]: > 100 µM
TGI [22]: > 100 µM
TGI [23]: > 100 µM
TGI [24]: > 100 µM
TGI [25]: > 100 µM
TGI [26]: > 100 µM
TGI [27]: > 100 µM
TGI [28]: > 100 µM
TGI [29]: 89.8 µM
TGI [30]: > 100 µM
TGI [31]: > 100 µM
TGI [32]: > 100 µM
TGI [33]: > 100 µM
TGI [34]: > 100 µM
TGI [35]: > 100 µM
TGI [36]: > 100 µM
TGI [37]: > 100 µM
TGI [38]: > 100 µM
TGI [39]: > 100 µM
TGI [40]: > 100 µM
TGI [41]: > 100 µM
TGI [42]: > 100 µM
TGI [43]: > 100 µM
TGI [44]: > 100 µM
TGI [45]: > 100 µM
TGI [46]: > 100 µM
TGI [47]: > 100 µM
TGI [48]: > 100 µM
TGI [49]: > 100 µM
TGI [50]: > 100 µM
TGI [51]: > 100 µM
TGI [52]: > 100 µM
TGI [53]: > 100 µM

O=C(Nc1cc(Cl)c(Cl)cc1Cl)C(=O)C(C(=O)c1ccccc1)C1OC(=O)c2ccccc21 (stereo not given)
TGI [1]: > 100 µM
TGI [2]: > 100 µM
TGI [3]: > 100 µM
TGI [4]: > 100 µM
TGI [5]: > 100 µM
TGI [6]: > 100 µM
TGI [7]: > 100 µM
TGI [8]: > 100 µM
TGI [9]: > 100 µM
TGI [10]: > 100 µM
TGI [11]: > 100 µM
TGI [12]: > 100 µM
TGI [13]: > 100 µM
TGI [14]: > 100 µM
TGI [15]: > 100 µM
TGI [16]: > 100 µM
TGI [17]: > 100 µM
TGI [18]: > 100 µM
TGI [19]: > 100 µM
TGI [20]: > 100 µM
TGI [21]: > 100 µM
TGI [22]: > 100 µM
TGI [54]: > 100 µM
TGI [55]: > 100 µM
TGI [23]: > 100 µM
TGI [24]: > 100 µM
TGI [26]: > 100 µM
TGI [27]: > 100 µM
TGI [28]: > 100 µM
TGI [29]: > 100 µM
TGI [30]: > 100 µM
TGI [31]: > 100 µM
TGI [32]: > 100 µM
TGI [33]: > 100 µM
TGI [34]: > 100 µM
TGI [35]: > 100 µM
TGI [36]: > 100 µM
TGI [38]: > 100 µM
TGI [39]: > 100 µM
TGI [40]: > 100 µM
TGI [56]: > 100 µM
TGI [41]: > 100 µM
TGI [42]: > 100 µM
TGI [43]: > 100 µM
TGI [44]: > 100 µM
TGI [57]: > 100 µM
TGI [58]: > 100 µM
TGI [45]: > 100 µM
TGI [46]: > 100 µM
TGI [47]: > 100 µM
TGI [48]: > 100 µM
TGI [49]: > 100 µM
TGI [50]: > 100 µM
TGI [51]: > 100 µM
TGI [59]: > 100 µM
TGI [53]: > 100 µM

O=C(O)C(CO)N=Cc1nc(-c2ccccc2)oc1O (stereo not given)
TGI [1]: > 100 µM
TGI [2]: > 100 µM
TGI [3]: > 100 µM
TGI [4]: > 100 µM
TGI [5]: > 100 µM
TGI [6]: > 100 µM
TGI [7]: > 100 µM
TGI [8]: > 100 µM
TGI [9]: > 100 µM
TGI [10]: > 100 µM
TGI [11]: > 100 µM
TGI [12]: > 100 µM
TGI [13]: > 100 µM
TGI [14]: > 100 µM
TGI [15]: > 100 µM
TGI [16]: > 100 µM
TGI [17]: > 100 µM
TGI [19]: > 100 µM
TGI [20]: > 100 µM
TGI [21]: > 100 µM
TGI [22]: > 100 µM
TGI [54]: > 100 µM
TGI [55]: > 100 µM
TGI [23]: > 100 µM
TGI [24]: > 100 µM
TGI [25]: > 100 µM
TGI [26]: > 100 µM
TGI [27]: > 100 µM
TGI [28]: > 100 µM
TGI [29]: > 100 µM
TGI [30]: > 100 µM
TGI [31]: > 100 µM
TGI [32]: > 100 µM
TGI [33]: > 100 µM
TGI [34]: > 100 µM
TGI [35]: > 100 µM
TGI [36]: > 100 µM
TGI [37]: > 100 µM
TGI [38]: > 100 µM
TGI [39]: > 100 µM
TGI [56]: > 100 µM
TGI [41]: > 100 µM
TGI [42]: > 100 µM
TGI [43]: > 100 µM
TGI [44]: > 100 µM
TGI [58]: > 100 µM
TGI [45]: > 100 µM
TGI [46]: > 100 µM
TGI [47]: > 100 µM
TGI [48]: > 100 µM
TGI [49]: > 100 µM
TGI [50]: > 100 µM
TGI [51]: > 100 µM
TGI [52]: > 100 µM
TGI [59]: > 100 µM
TGI [53]: > 100 µM
